Experimental data as given in publication PMC3694096, “Development of Novel In Vivo Chemical Probes to Address CNS Protein Kinase Involvement in Synaptic Dysfunction” (PLoS ONE, 2013).

Tests used:
[1] = target: T1, HIPK1 (Homo sapiens, UniProt Q86Z02); test: Kinome profiler screen; type: biochemical; details: at 20,000 nM inhibitor; kinase activity remaining
T1 construct: purchased Millipore KinaseProfiler

[2] = target: T2, TAO1 (Homo sapiens, UniProt Q7L7X3); test: Kinome profiler screen; type: biochemical; details: at 20,000 nM inhibitor; kinase activity remaining
T2 construct: purchased Millipore KinaseProfiler

[3] = target: T3, Fer (Homo sapiens, UniProt P16591); test: Kinome profiler screen; type: biochemical; details: at 20,000 nM inhibitor; kinase activity remaining
T3 construct: purchased Millipore KinaseProfiler

[4] = target: T4, Yes (Homo sapiens, UniProt P07947); test: Kinome profiler screen; type: biochemical; details: at 20,000 nM inhibitor; kinase activity remaining
T4 construct: purchased Millipore KinaseProfiler

[5] = target: T5, PKG1α (Homo sapiens, UniProt Q13976); test: Kinome profiler screen; type: biochemical; details: at 20,000 nM inhibitor; kinase activity remaining
T5 construct: purchased Millipore KinaseProfiler

[6] = target: T6, FGFR3 (Homo sapiens, UniProt P22607); test: Kinome profiler screen; type: biochemical; details: at 20,000 nM inhibitor; kinase activity remaining
T6 construct: purchased Millipore KinaseProfiler

[7] = target: T7, EphA2 (Homo sapiens, UniProt P29317); test: Kinome profiler screen; type: biochemical; details: at 20,000 nM inhibitor; kinase activity remaining
T7 construct: purchased Millipore KinaseProfiler

[8] = target: T8, CDK5/p35 (Homo sapiens, UniProt Q00535); test: Kinome profiler screen; type: biochemical; details: at 20,000 nM inhibitor; kinase activity remaining
T8 construct: purchased Millipore KinaseProfiler

[9] = target: T9, CDK5/p25 (Homo sapiens, UniProt Q00535); test: Kinome profiler screen; type: biochemical; details: at 20,000 nM inhibitor; kinase activity remaining
T9 construct: purchased Millipore KinaseProfiler

[10] = target: T10, IRR (Homo sapiens, UniProt P14616); test: Kinome profiler screen; type: biochemical; details: at 20,000 nM inhibitor; kinase activity remaining
T10 construct: purchased Millipore KinaseProfiler

[11] = target: T11, SGK (Homo sapiens, UniProt O00141); test: Kinome profiler screen; type: biochemical; details: at 20,000 nM inhibitor; kinase activity remaining
T11 construct: purchased Millipore KinaseProfiler

[12] = target: T12, IRAK4 (Homo sapiens, UniProt Q9NWZ3); test: Kinome profiler screen; type: biochemical; details: at 20,000 nM inhibitor; kinase activity remaining
T12 construct: purchased Millipore KinaseProfiler

[13] = target: T13, PKG1β (Homo sapiens, UniProt Q13976); test: Kinome profiler screen; type: biochemical; details: at 20,000 nM inhibitor; kinase activity remaining
T13 construct: purchased Millipore KinaseProfiler

[14] = target: T14, KDR (Homo sapiens, UniProt P35968); test: Kinome profiler screen; type: biochemical; details: at 20,000 nM inhibitor; kinase activity remaining
T14 construct: purchased Millipore KinaseProfiler

[15] = target: T15, cKit(D816H) (Homo sapiens, UniProt P10721, D816H); test: Kinome profiler screen; type: biochemical; details: at 20,000 nM inhibitor; kinase activity remaining
T15 construct: purchased Millipore KinaseProfiler

[16] = target: T16, CaMKIIγ (Homo sapiens, UniProt Q13555); test: Kinome profiler screen; type: biochemical; details: at 20,000 nM inhibitor; kinase activity remaining
T16 construct: purchased Millipore KinaseProfiler

[17] = target: T17, DMPK (Homo sapiens, UniProt Q09013); test: Kinome profiler screen; type: biochemical; details: at 20,000 nM inhibitor; kinase activity remaining
T17 construct: purchased Millipore KinaseProfiler

[18] = target: T18, MSK1 (Homo sapiens, UniProt O75582); test: Kinome profiler screen; type: biochemical; details: at 20,000 nM inhibitor; kinase activity remaining
T18 construct: purchased Millipore KinaseProfiler

[19] = target: T19, CDK2/cyclinE (Homo sapiens, UniProt P24941); test: Kinome profiler screen; type: biochemical; details: at 20,000 nM inhibitor; kinase activity remaining
T19 construct: purchased Millipore KinaseProfiler

[20] = target: T20, SRPK1 (Homo sapiens, UniProt Q96SB4); test: Kinome profiler screen; type: biochemical; details: at 20,000 nM inhibitor; kinase activity remaining; read-out: % Activity
T20 construct: purchased Millipore KinaseProfiler

[21] = target: T21, PAK2 (Homo sapiens, UniProt Q13177); test: Kinome profiler screen; type: biochemical; details: at 20,000 nM inhibitor; kinase activity remaining
T21 construct: purchased Millipore KinaseProfiler

[22] = target: T22, PAK6 (Homo sapiens, UniProt Q9NQU5); test: Kinome profiler screen; type: biochemical; details: at 20,000 nM inhibitor; kinase activity remaining
T22 construct: purchased Millipore KinaseProfiler

[23] = target: T23, GSK3β (Homo sapiens, UniProt P49841); test: Kinome profiler screen; type: biochemical; details: at 20,000 nM inhibitor; kinase activity remaining
T23 construct: purchased Millipore KinaseProfiler

[24] = target: T24, Haspin (Homo sapiens, UniProt Q8TF76); test: Kinome profiler screen; type: biochemical; details: at 20,000 nM inhibitor; kinase activity remaining
T24 construct: purchased Millipore KinaseProfiler

[25] = target: T25, PASK (Homo sapiens, UniProt Q96RG2); test: Kinome profiler screen; type: biochemical; details: at 20,000 nM inhibitor; kinase activity remaining
T25 construct: purchased Millipore KinaseProfiler

[26] = target: T26, EGFR(L858R) (Homo sapiens, UniProt P00533, L858R); test: Kinome profiler screen; type: biochemical; details: at 20,000 nM inhibitor; kinase activity remaining
T26 construct: purchased Millipore KinaseProfiler

[27] = target: T27, ULK3 (Homo sapiens, UniProt Q6PHR2); test: Kinome profiler screen; type: biochemical; details: at 20,000 nM inhibitor; kinase activity remaining
T27 construct: purchased Millipore KinaseProfiler

[28] = target: T28, LOK (Homo sapiens, UniProt O94804); test: Kinome profiler screen; type: biochemical; details: at 20,000 nM inhibitor; kinase activity remaining
T28 construct: purchased Millipore

[29] = target: T29, CaMKIIδ (Homo sapiens, UniProt Q13557); test: Kinome profiler screen; type: biochemical; details: at 20,000 nM inhibitor; kinase activity remaining
T29 construct: purchased Millipore KinaseProfiler

[30] = target: T30, Plk1 (Homo sapiens, UniProt P53350); test: Kinome profiler screen; type: biochemical; details: at 20,000 nM inhibitor; kinase activity remaining
T30 construct: purchased Millipore KinaseProfiler

[31] = target: T31, GRK6 (Homo sapiens, UniProt P43250); test: Kinome profiler screen; type: biochemical; details: at 20,000 nM inhibitor; kinase activity remaining; read-out: % Activity
T31 construct: purchased Millipore KinaseProfiler

[32] = target: T32, PKBα (Homo sapiens, UniProt P31749); test: Kinome profiler screen; type: biochemical; details: at 20,000 nM inhibitor; kinase activity remaining
T32 construct: purchased Millipore KinaseProfiler

[33] = target: T33, Flt4 (Homo sapiens, UniProt P35916); test: Kinome profiler screen; type: biochemical; details: at 20,000 nM inhibitor; kinase activity remaining
T33 construct: purchased Millipore

[34] = target: T34, MARK1 (Homo sapiens, UniProt Q9P0L2); test: Kinome profiler screen; type: biochemical; details: at 20,000 nM inhibitor; kinase activity remaining
T34 construct: purchased Millipore KinaseProfiler

[35] = target: T35, PDGFRα (Homo sapiens, UniProt P16234); test: Kinome profiler screen; type: biochemical; details: at 20,000 nM inhibitor; kinase activity remaining
T35 construct: purchased Millipore KinaseProfiler

[36] = Dose escalation adverse event screen (SHIRPA based); type: in vivo; details: highest dose at which no adverse events are observed in dose escalation studies, mice
From the text: Novel compounds were screened in vivo using a standard dose escalation screen in mice coupled with clinical observation and testing based on the SHIRPA mouse phenotype assay paradigm. To obtain insight into the potential for off-target activity with the largest known family of small molecule drug targets, G-protein coupled receptors (GPCRs), a cell-based functional screen of the final title compounds was done. The Millipore® GPCR Profiler screen employs the ChemiScreen GPCR stable cell line technology used for real-time calcium flux FLIPR assays on a panel of 158 GPCRs to detect both antagonists and agonists. The NCBI Entrez identifier for each GPCR is provided at the vendor site (www.millipore.com). Follow-up validation of any initial hits as being true positives or negatives was done as described above for protein kinases by testing the concentration dependence of any cellular effects. No validated hits were detected.

[37] = target: T36, PI3 Kinase (p110δ/p85α) (Homo sapiens, UniProt O00329); test: Kinome profiler screen; type: biochemical; details: at 20,000 nM inhibitor; kinase activity remaining
T36 construct: purchased Millipore KinaseProfiler

[38] = target: T37, Snk (Homo sapiens, UniProt Q9NYY3); test: Kinome profiler screen; type: biochemical; details: at 20,000 nM inhibitor; kinase activity remaining
T37 construct: purchased Millipore KinaseProfiler

[39] = target: T38, EphB1 (Homo sapiens, UniProt P54762); test: Kinome profiler screen; type: biochemical; details: at 20,000 nM inhibitor; kinase activity remaining; read-out: % Activity
T38 construct: purchased Millipore KinaseProfiler

T12 sequence (Q9NWZ3 whole entry): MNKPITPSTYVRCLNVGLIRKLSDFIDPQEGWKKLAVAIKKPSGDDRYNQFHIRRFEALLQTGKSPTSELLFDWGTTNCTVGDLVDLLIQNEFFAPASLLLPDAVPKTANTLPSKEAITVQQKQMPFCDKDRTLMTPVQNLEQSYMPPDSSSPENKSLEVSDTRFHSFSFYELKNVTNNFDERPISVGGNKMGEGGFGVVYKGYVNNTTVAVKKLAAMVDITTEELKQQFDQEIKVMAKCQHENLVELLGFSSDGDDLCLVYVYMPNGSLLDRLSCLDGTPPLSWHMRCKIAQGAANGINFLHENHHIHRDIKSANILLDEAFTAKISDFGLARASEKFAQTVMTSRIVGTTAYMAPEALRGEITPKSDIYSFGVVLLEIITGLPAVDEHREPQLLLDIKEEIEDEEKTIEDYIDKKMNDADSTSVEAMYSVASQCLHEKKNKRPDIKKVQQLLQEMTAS
T32 sequence (P31749 whole entry): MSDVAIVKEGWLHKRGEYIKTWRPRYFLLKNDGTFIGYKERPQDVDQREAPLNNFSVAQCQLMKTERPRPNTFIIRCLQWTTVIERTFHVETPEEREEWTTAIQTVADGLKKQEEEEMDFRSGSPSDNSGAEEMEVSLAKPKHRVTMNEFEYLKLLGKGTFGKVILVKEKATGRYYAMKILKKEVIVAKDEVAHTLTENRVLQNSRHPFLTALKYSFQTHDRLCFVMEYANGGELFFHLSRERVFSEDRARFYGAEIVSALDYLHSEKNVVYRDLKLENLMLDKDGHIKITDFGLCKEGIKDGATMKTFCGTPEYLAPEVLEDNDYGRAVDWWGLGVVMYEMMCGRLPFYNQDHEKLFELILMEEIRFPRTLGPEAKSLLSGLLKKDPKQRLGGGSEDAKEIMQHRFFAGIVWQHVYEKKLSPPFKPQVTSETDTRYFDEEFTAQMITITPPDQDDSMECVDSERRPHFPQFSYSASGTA
T20 sequence (Q96SB4 whole entry): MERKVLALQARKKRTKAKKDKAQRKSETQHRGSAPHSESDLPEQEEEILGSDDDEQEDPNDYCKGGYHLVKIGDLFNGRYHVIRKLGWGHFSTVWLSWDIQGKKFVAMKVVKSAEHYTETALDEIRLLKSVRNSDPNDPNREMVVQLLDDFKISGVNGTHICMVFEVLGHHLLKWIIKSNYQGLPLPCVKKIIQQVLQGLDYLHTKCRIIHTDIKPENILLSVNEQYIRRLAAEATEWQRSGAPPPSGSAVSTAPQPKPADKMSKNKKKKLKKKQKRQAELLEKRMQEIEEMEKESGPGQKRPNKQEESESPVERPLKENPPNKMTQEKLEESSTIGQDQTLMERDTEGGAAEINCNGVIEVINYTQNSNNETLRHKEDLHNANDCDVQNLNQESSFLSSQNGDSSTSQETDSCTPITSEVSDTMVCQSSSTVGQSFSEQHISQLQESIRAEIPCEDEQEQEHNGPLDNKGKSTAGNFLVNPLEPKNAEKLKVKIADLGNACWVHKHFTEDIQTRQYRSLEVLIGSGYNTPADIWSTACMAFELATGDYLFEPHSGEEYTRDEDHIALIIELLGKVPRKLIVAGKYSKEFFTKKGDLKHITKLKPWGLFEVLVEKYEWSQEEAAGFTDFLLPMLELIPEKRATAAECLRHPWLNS
T31 sequence (P43250 whole entry): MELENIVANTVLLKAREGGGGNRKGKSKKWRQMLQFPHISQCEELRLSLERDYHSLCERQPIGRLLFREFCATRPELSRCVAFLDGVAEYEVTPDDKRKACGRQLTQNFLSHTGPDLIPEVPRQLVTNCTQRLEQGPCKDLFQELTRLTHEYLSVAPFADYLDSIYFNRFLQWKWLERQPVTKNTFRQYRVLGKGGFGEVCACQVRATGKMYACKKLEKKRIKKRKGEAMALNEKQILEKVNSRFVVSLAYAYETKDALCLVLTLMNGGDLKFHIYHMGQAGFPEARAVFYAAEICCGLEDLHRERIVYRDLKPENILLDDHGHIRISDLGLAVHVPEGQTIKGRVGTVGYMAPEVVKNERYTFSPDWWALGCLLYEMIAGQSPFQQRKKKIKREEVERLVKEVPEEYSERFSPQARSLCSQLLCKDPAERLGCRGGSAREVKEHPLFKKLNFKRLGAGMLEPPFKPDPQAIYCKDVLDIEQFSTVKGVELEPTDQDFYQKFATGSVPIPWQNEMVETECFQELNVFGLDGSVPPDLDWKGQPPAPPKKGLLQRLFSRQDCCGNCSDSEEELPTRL
T3 sequence (P16591 whole entry): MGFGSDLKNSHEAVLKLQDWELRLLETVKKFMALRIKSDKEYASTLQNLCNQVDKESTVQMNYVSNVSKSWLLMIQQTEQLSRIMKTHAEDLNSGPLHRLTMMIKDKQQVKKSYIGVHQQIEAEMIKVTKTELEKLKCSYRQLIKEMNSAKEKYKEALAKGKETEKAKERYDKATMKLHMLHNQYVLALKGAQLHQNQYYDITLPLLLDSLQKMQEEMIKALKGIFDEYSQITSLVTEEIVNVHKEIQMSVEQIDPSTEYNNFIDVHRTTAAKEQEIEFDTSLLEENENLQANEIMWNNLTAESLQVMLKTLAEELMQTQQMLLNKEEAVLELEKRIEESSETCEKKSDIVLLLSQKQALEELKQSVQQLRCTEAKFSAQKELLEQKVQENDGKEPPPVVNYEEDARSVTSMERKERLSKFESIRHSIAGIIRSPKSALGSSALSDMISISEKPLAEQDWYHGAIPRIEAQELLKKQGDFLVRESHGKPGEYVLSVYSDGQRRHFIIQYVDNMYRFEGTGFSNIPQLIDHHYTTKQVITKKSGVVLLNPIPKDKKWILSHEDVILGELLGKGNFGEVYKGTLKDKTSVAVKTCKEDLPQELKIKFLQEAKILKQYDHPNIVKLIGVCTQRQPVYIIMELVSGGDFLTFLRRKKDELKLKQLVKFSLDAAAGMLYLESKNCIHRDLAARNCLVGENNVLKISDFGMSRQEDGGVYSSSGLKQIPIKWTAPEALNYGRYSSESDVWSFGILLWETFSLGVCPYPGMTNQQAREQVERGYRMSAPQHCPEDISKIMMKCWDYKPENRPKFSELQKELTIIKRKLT
T29 sequence (Q13557 whole entry): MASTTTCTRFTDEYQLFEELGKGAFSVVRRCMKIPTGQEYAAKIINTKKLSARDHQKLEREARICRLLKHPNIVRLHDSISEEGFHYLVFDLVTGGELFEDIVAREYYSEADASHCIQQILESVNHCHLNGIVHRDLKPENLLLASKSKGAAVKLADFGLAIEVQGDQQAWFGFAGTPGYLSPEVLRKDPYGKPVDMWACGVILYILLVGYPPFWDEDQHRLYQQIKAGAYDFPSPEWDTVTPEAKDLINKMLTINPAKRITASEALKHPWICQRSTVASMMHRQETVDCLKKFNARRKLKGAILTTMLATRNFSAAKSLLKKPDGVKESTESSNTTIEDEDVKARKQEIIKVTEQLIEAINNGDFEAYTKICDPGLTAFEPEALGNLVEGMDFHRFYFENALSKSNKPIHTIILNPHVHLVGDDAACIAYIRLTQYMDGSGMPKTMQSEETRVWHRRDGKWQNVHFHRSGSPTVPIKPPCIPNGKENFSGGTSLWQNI
T28 sequence (O94804 whole entry): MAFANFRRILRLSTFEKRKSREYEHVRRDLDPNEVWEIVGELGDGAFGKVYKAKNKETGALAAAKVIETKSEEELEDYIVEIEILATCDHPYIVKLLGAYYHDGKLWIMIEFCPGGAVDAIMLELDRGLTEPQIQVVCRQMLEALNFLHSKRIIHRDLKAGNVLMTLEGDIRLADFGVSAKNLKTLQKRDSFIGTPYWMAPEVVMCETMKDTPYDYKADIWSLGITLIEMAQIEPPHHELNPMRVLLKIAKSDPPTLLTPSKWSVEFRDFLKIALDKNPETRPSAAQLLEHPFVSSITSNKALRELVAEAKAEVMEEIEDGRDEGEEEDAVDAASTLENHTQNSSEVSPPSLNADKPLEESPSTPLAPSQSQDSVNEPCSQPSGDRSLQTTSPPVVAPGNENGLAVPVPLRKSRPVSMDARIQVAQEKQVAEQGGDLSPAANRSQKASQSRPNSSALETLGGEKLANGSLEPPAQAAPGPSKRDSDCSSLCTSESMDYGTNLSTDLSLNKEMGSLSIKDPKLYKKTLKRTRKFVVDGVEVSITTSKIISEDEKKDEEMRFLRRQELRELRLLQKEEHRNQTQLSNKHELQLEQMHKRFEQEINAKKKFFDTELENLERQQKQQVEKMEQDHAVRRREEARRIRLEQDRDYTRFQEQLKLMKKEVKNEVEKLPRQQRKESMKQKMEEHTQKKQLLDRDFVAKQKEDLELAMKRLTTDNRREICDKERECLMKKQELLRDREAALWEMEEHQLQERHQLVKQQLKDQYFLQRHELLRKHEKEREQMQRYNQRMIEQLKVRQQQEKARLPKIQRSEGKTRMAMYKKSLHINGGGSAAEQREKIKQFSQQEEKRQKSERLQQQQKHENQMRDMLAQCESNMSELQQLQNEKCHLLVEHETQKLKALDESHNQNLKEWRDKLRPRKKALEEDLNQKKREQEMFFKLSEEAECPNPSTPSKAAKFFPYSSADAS
T21 sequence (Q13177 whole entry): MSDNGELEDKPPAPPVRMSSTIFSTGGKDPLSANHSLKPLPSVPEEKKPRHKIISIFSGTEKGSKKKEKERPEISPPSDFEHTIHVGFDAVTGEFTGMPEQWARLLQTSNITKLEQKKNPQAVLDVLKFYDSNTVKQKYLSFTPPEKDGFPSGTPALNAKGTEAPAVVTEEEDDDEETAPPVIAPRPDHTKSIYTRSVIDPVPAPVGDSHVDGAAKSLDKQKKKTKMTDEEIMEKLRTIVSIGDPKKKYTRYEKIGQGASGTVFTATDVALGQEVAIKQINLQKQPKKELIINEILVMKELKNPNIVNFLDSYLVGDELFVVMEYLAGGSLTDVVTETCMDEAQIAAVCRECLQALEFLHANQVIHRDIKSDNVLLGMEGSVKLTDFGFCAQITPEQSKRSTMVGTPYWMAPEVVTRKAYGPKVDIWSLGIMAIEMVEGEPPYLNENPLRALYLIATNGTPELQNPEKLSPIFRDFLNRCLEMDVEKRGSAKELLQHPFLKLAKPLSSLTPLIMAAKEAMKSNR

SMILES: CN(C)c1cc(-c2ccncc2)c(-c2cccc3ccccc23)nn1 [MW181, N,N-dimethyl-6-(naphthalen-1-yl)-5-(pyridin-4-yl)pyridazin-3-amine]
- activity at 20 µM [1]: 107%
- activity at 20 µM [2]: 98%
- activity at 20 µM [3]: 92%
- activity at 20 µM [4]: 87%
- activity at 20 µM [5]: 97%
- activity at 20 µM [6]: 118%
- activity at 20 µM [7]: 91%
- activity at 20 µM [8]: 95%
- activity at 20 µM [9]: 99%
- activity at 20 µM [10]: 108%
- activity at 20 µM [11]: 88%
- activity at 20 µM [12]: 100%
- activity at 20 µM [13]: 97%
- activity at 20 µM [14]: 97%
- activity at 20 µM [15]: 102%
- activity at 20 µM [16]: 100%
- activity at 20 µM [17]: 116%
- activity at 20 µM [18]: 106%
- activity at 20 µM [19]: 118%
- activity at 20 µM [20]: 103%
- activity at 20 µM [21]: 101%
- activity at 20 µM [22]: 101%
- activity at 20 µM [23]: 92%
- activity at 20 µM [24]: 93%
- activity at 20 µM [25]: 97%
- activity at 20 µM [26]: 78%
- activity at 20 µM [27]: 106%
- activity at 20 µM [28]: 84%
- activity at 20 µM [29]: 106%
- activity at 20 µM [30]: 110%
- activity at 20 µM [31]: 105%
- activity at 20 µM [32]: 90%
- activity at 20 µM [33]: 98%
- activity at 20 µM [34]: 102%
- activity at 20 µM [35]: 103%
- Dose Escalating Adverse Event Screen / Adverse Pharm Dose [36]: ≥ 200 mg/kg
- Dose Escalating Adverse Event Screen / Adverse Pharm Dose ([36]; listed as MW01-10-181SRM): > 200 mg/kg
- activity at 20 µM [37]: 101%
- activity at 20 µM [38]: 99%
- activity at 20 µM [39]: 100%
